US20170268001A1, “RNAS WITH TUMOR RADIO/CHEMO-SENSITIZING AND IMMUNOMODULATORY PROPERTIES AND METHODS OF THEIR PREPARATION AND APPLICATION” (THE UNIVERSITY OF CHICAGO, priority 2016, published 2017)

Tests used:
[1] = test system: MC38 tumors; test: MC38 tumor growth after local radiation (20Gy); type: in vivo, mouse
Procedure: 1×10^6 MC38 tumor cells were subcutaneously injected into the flank of mice.
(§1) Tumor volumes were measured along three orthogonal axes (a, b, and c) and calculated as tumor volume=abc/2. Tumors were allowed to grow for 9-10 days and treated by local radiation (Deng et al., 2014). Briefly, the body was protected with a lead cover and the tumor was exposed, allowing local radiation. Tumors were irradiated using RS-2000 Biological Irradiator (RAD SOURCE) at the dose of 20Gy with 160 kV and 25 mA. For type I IFN blockade experiments, 200 μg anti-IFAR1 mAb was intratumorally injected on day 0 and 2 after radiation. For HMGB-1 blockade experiments, 200 μg anti-HMGB-1 mAb (clone 3B1, generated by inventors) was administered i.p. on day 0 and 3 after radiation. For CD8^+ T cell depletion experiments, 300 μg anti-CD8 mAb (Clone 2.43, BioXCell) was delivered 5 times by i.p. injection every three days starting one day before radiation. For exogenous IFN-β treatment experiments, 1×10^10 viral particles of Ad-IFN-β (Burnette, B., et al., The Efficacy of Radiotherapy Relies upon Induction of Type I Interferon-Dependent Innate and Adaptive Immunity, Cancer Res Apr. 1, 2011 71; 2488; (doi: 10.1158/0008-5472.CAN-10-2820)) were intratumorally administered on day 2 after radiation. Ad-null was used as negative control. […]

[2] = test system: MC38 tumors; test: ELISPOT of IFNγ-secreting tumor-specific CD8+ T cells from tumor DLNs; type: in vivo, mouse
Procedure: as §1

[3] = test system: BMDCs; test: BMDC cross-priming of CD8+ T cells with irradiated tumor cells (ELISPOT); type: cell-based, mouse; conditions: IFN-β 10 ng/ml in co-culture; DMXAA 100 μg/ml, 3 h
Procedure: Single-cell suspensions of bone marrow cells were obtained from C57BL/6J, STING^−/− and IRF3^−/− mice. Bone marrow from cGAS^−/− mice was kindly provided by Dr. Zhijian J. Chen of University of Texas Southwestern Medical Center, Dallas. The cells were placed in 10 cm petri dish and cultured in RPMI-1640 medium containing 10% fetal bovine serum ([…]), supplemented with 20 ng/ml GM-CSF. Fresh media with GM-CSF was added into culture on day 3. BMDCs (bone marrow-derived dendritic cells) were harvest for stimulation assay on day 7. 8×10^6 MC38-SIY^hi cells were plated into 10 cm cell culture dishes overnight, and then pretreated with 40Gy and incubated for 5 hours. BMDCs were added and co-cultured with MC38-SIY″ cells at the ratio of 1:1 in the presence of fresh GM-CSF for additional 8 hours. Subsequently purified CD11c^+ cells with EasySep™ Mouse CD11c Positive Selection Kit II ([…]) were incubated with isolated CD8^+ T cells from naive 2C mice for three days. For the bypassing assay, 10 ng/ml murine IFN-β was added in the co-culture of BMDCs and tumor cells, or 100 μg/ml DMXAA was added into isolated CD11c^+ cells with additional 3 h incubation. For IFN-β detection, BMDCs were co-cultured with tumor cells at the ratio of 1:1 for additional 8 hours, and 1×10^6 cells/ml purified CD11c^+ cells were seed into 96-well plates for 48 hours. […]

[4] = test system: RIG-I^−/− and WT MEFs; shRIG-I D54 and HCT116 tumor cells; test: Caspase 3/7 activity in response to chemotherapy drugs with or without RIG-I; type: cell-based; conditions: increasing doses of drug
[5] = target: T1, RIG-I (DDX58), full-length (Homo sapiens) (UniProt O95786); test: pulldown; conditions: CLIP-qPCR, enrichment in RIG-I complexes from irradiated (6 Gy) vs non-irradiated HEK293; also enriched in HCT116
T1 sequence: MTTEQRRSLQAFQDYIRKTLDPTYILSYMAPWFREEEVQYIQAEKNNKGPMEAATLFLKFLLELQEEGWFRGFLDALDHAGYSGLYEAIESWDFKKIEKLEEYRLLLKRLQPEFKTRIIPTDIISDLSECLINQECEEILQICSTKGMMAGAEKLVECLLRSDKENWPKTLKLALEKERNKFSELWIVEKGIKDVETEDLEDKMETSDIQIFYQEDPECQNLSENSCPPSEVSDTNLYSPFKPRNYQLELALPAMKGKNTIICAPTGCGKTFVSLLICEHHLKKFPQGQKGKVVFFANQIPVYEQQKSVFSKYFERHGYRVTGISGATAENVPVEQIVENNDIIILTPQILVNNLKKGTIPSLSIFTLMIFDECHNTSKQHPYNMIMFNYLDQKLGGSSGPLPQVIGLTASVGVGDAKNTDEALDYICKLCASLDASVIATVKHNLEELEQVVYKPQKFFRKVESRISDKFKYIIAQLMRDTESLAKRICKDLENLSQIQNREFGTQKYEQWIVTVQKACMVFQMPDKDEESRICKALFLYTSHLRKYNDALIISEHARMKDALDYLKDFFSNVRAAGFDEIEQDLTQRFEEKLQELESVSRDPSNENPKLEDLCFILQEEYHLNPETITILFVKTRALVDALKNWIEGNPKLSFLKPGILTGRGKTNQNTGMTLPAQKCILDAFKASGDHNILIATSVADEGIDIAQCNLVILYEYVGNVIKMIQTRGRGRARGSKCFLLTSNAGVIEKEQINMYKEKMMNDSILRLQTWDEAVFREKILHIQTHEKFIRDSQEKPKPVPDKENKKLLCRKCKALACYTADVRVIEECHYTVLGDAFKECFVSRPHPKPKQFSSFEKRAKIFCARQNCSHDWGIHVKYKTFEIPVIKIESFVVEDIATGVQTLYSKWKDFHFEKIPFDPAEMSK

[6] = target: T2, RIG-I (Homo sapiens, UniProt O95786); test: HEK293 IFN-beta promoter dual luciferase reporter, RNA stimulation; type: cell-based; conditions: 1 μg synthetic oligonucleotide, 24 hour stimulation
T2 construct: HEK293 cells overexpressing either the full length RIG-I; host or cells: HEK293; HCT116 also for the qRT-PCR validation
T2 sequence (O95786 1-925): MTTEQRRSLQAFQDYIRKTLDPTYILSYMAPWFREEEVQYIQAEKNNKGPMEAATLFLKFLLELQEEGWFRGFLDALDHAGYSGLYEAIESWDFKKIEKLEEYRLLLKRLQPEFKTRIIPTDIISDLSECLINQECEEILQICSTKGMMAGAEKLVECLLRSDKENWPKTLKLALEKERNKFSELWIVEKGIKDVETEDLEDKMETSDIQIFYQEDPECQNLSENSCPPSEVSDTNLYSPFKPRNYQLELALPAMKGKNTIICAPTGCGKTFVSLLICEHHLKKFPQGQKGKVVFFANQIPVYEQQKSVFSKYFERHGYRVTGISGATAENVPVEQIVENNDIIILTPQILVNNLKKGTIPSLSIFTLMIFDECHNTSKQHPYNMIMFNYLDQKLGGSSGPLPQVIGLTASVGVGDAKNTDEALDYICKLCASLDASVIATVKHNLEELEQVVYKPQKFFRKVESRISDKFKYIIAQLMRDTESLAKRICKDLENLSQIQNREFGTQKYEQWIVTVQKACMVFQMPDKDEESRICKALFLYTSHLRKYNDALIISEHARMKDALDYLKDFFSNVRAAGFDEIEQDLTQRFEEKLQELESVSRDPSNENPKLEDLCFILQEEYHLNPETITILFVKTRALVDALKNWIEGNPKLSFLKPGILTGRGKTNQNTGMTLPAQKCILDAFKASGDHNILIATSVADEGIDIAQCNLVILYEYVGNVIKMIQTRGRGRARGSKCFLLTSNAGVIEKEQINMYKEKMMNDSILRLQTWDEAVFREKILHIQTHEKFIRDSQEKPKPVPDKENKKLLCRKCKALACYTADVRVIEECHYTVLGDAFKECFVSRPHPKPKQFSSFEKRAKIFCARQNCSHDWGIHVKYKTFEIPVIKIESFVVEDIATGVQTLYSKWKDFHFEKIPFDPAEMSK
Procedure: We also used reporter HEK293 cells as simple technique to evaluate ability of the given RNA to stimulate IFN-beta production in preliminary in vitro experiments. Technically this was performed as follows: RNA stimulation of HEK293 IFN-beta reporter cells HEK293 cells were seeded in a 24-well plate overnight at a density of 1.5×10^5 cells/ml (75,000 cells/well). Cells were co-transfected with 100 ng of plasmid construct (pCAGGS empty vector, pCAGGS-RIG-I full-length, pCAGGS-RIG-I helicase-RD mutant construct, and […] mutant construct), together with 80 ng of a firefly luciferase reporter gene driven by an IFN-beta promoter and 20 ng of a Renilla luciferase (pRL-null) transfection control. Transfections were performed using a cationic lipid agent, Fugene HD (Promega), at a 3:1 lipid:DNA ratio. Twenty-four hours post-transfection, cells were then stimulated with 1 μg RNA* mixed with Fugene HD at 2:1 lipid: RNA ratio for 24 hours. 20 μl cell lysates were collected in opaque 96-well plates and analyzed for IFN-beta-luciferase and Renilla activity using a BioTek Synergy HT plate reader. The transfection efficiency across different wells was normalized by dividing the IFN-beta luciferase activity with the Renilla activity. All values were further normalized to the unstimulated controls in cells transfected with the empty vector. All pCAGGS RIG-I constructs used in this study were generous gifts from Dr. Jenish Patel and Dr. Adolfo Garcia-Sastre of The Icahn School of Medicine at Mount Sinai in New York City. Synthetic RNA comprised of various stem loop regions of the human U1 snRNA were purchased from IDT Oligos as reported in (Bernard et al., 2012). U1 stem loop I sequence: [NT] ID NO:15); U1 stem loop II sequence: [NT] ID NO:16); U1 stem loop III sequence: [NT] ID NO:17); U1 stem loop IV sequence: [NT] ID NO:18); U1 stem loops I and II sequence: [NT] ID NO:19); U1 stem loops II and III sequence: [NT] ID NO:20). In vitro transcribed U1 RNA stimulation: Full length U1 (pT7U1) plasmid was generously provided by Dr. Joan Steitz (Yale School of Medicine, Yale University). […]

Nc1nc2c(ncn2[C@@H]2O[C@@H]3COP(=O)(O)O[C@H]4[C@@H](O)[C@H](n5cnc6c(N)ncnc65)O[C@@H]4COP(=O)(O)O[C@@H]2[C@@H]3O)c(=O)[nH]1 [2′3′-cGAMP, cyclic [G(2′,5′)pA(3′,5′)p]]
synergy with radiation ([1]; STING^−/− mice): abrogated | tumor burden, combination with radiation compared to either alone ([1]; WT mice, 10 μg intratumorally on day 2 and 6 after 20Gy): effectively reduce tumor burden | number of tumor-specific IFN-γ-producing CD8+ T cells in DLNs ([2]; combination with radiation vs radiation or 2′3′-cGAMP alone, WT mice): significantly increased | antitumor CD8+ T cell response induced by combination with radiation ([2]; deficiency of STING in the host): dampened

Cc1ccc2c(=O)c3cccc(CC(=O)O)c3oc2c1C [DMXAA]
function of STING^−/− BMDCs (cross-priming) [3]: fails to rescue | function of cGAS^−/− BMDCs (cross-priming) [3]: restored

N.N.[Cl][Pt][Cl] [cisplatin]
caspase 3/7 activity in response to drug treatment, RIG-I absent or depleted vs control cells [4]: reduced caspase 3/7 activity

COc1cccc2c1C(=O)c1c(O)c3c(c(O)c1C2=O)C[C@@](O)(C(=O)CO)C[C@@H]3O[C@H]1C[C@H](N)[C@H](O)[C@H](C)O1 [doxorubicin]
caspase 3/7 activity in response to drug treatment, RIG-I absent or depleted vs control cells [4]: reduced caspase 3/7 activity

U1 snRNA (endogenous)
binding signal [5]: 6 fold

B1: SL II+III: synthetic RNA of U1 stem loops II and III, SEQ ID NO:20 (nucleic acid)
chain: GGGCGAGGCTTATCCATTGCACTCCGGATGTGCTGACCCCTGCGATTTCCCCAAATGTGGGAAACTCGACTGC
modifications: listed as DNA, chemistry not given here
IFN-beta response (reporter activity in HEK293; IFN-b in MEF supernatant) [6]: potent inducers of IFN-beta response

B2: SL I+II: synthetic RNA of U1 stem loops I and II, SEQ ID NO:19 (nucleic acid)
chain: GGGAGATACCATGATCACGAAGGTGGTTTTCCCAGGGCGAGGCTTATCCATTGCACTCCGGATGTGCTGACCCC
modifications: listed as DNA, chemistry not given here
IFN-beta response (reporter activity in HEK293; IFN-b in MEF supernatant) [6]: potent inducers of IFN-beta response
